Article PMC12730265, “Combinatorial Antimicrobial Effects of Imidazolium-Based Ionic Liquids and Antifungals on Model Fungal Organisms” (Biomolecules, 2025)
Read-outs that look alike come from different tables or passages of the source.

What was measured:
C. albicans = experiment: Kirby–Bauer disk diffusion assay on IL-containing YPD plates; assay type: cell-based
Experimental: Assessment of fungal growth on YPD plates with AFs + ILs served as an indicator for the combined efficacy of treatment of ILs and AFs. YPD agar plates were made with addition of increasing concentrations of [HMIM]Cl at 0, 2.5, 6.25, and 25 mM or [OMIM]Cl at 0, 0.25, 0.625, and 2.5 mM. Plates solidified and dried on bench for 24 h before use. IN total, 400 μL of S. cerevisiae or C. albicans liquid culture at mid-log phase OD600 0.5 was spread using sterile glass beads to achieve even distribution. Following addition of culture, the plates were allowed to dry for 30 min before the addition of antifungal disks. Antifungal-infused disks were prepared using the stock solutions of solubilized antibiotics; 15 μL of each of the 4 azole antifungals at stock concentrations was pipetted onto a sterile 6 mm cellulose disk (BD). […] After plate drying was complete, sterile forceps were used to transfer the disks to the media, and the plate was grown upright in an incubator overnight at 30 °C. The following day, photographs were taken of the plates to visualize the zone of inhibition (ZOI) created by the combined treatment. Adobe Illustrator 2023 CC was used to perform digital measurements of ZOI diameters.
To assess the potential for combinatorial effects of ILs and AFs in yeast, Kirby–Bauer disk diffusion assays were performed for C. albicans and S. cerevisiae for [HMIM]Cl and [OMIM]Cl with all four AFs. […] The addition of 6 mm cellulose disks infused with equal volumes of solubilized AFs to the plates occurred after plating of C. albicans or S. cerevisiae, allowing for growth for 48 h at 23 °C, at which point the plates were evaluated for the establishment of zones of inhibition (ZOI). Digital pictures were acquired of all plates, and measurements of ZOI diameter were performed digitally as described in the Methods. […] With progressively increasing amounts of both [HMIM]Cl and [OMIM]Cl, ZOIs increased for all Afs, including Fluconazole and Itraconazole, which appear to be ineffective without IL in the Kirby–Bauer disk assay. Experiments were performed in triplicate and ZOIs were measured for all plates.

HeLa cells [1] = experiment: Checkerboard cytotoxicity assay IL + Clotrimazole, CellTiter-Blue
Experimental: HeLa cells (Kyoto line) were grown at 37 °C in 5% CO2 using DMEM media with 4.5 g/L glucose + Sodium Pyruvate + L-Glutamine (VWRV02-0101) with 10% FBS. Antibiotics such as Pen/Strep were not used during treatment with ILs or AFs to exclude the possibility of interaction with other antibiotics. HeLa cells were grown to 70–90% confluency in T75 dishes; cells were dissociated with Trypsin/EDTA […] for 3 min and resuspended in 25 mL DMEM +10% FBS; 180 μL cells in media were added to each of the 96 wells on the plasma-treated culture plate and incubated at 37 °C overnight. Solutions of Clotrimazole plus either [HMIM]Cl and [OMIM]Cl were created and 20 μL of IL, AF, or IL + AF were added to 96-well plate and incubated at 37 °C for 24 h. Promega CellTiter-Blue Cell Viability reagent was used to evaluate cytotoxicity in accordance with the manufacturer’s guidelines. For each well, 20 μL of CellTiter-Blue was added and then the plates were incubated for either 1, 2, or 4 h and fluorescence was measured at Ex/EM 485/590 nm using a Biotek Synergy HT fluorometer Winooski, VT USA. EC50 and FIC calculations were performed using these treatments. EC50 calculations were performed using ATTB Bioquest online EC50 calculator and FIC scores were calculated as described in Doern et al..
One open question is whether addition of either of these ILs at sub-cytotoxic concentrations can improve effectiveness of AFs in fungi vs. mammalian cells. To evaluate this, we performed checkerboard assays for both [HMIM]Cl and [OMIM]Cl in the presence of Clotrimazole and calculated FIC scores as described in C. albicans checkerboard assays.

HeLa cells [2] = experiment: CellTiter-Blue cytotoxicity assay; assay type: cell-based, human; settings: for EC50: Homo sapiens, HeLa, read-out: EC50 (50% viability)
Experimental: EC50 and FIC calculations were performed using these treatments.
To understand the degree to which imidazolium chloride-based ILs of varying chain length are toxic to human cells, we treated HeLa cells with [HMIM]Cl or [OMIM]Cl with each of the four azole AFs for 24 h and evaluated cytotoxicity. Following 24 h of exposure in liquid culture at defined serial dilutions in a 96-well plate format, cells were evaluated for viability using CellTiter-Blue assay in which living cells can metabolize resazurin into resorufin, a fluorescent reporter molecule detected by plate spectroscopy. Consistent with findings for bacteria and yeast microorganisms, high concentrations of imidazolium chloride-based ILs are toxic to HeLa cells (Figure 6B). Moreover, HeLa cells treated with ILs with longer alkyl chain lengths [OMIM]Cl are less viable than when treated with [HMIM]Cl at the same final concentration. […] With respect to all four AFs, the degree of specificity for these drugs to fungi vs. human cells was clear (Figure 6B).

SMILES: Clc1ccccc1C(c1ccccc1)(c1ccccc1)n1ccnc1 [Clotrimazole]
- Zone of inhibition (ZOI) diameter (C. albicans; [HMIM]Cl 0 mM in plate): 10 mm
- Zone of inhibition (ZOI) diameter (C. albicans; [HMIM]Cl 2.5 mM in plate): 10.33 mm
- Zone of inhibition (ZOI) diameter (C. albicans; [HMIM]Cl 6.25 mM in plate): 25.67 mm
- Zone of inhibition (ZOI) diameter (C. albicans; [HMIM]Cl 25 mM in plate): 30.67 mm
- Zone of inhibition (ZOI) diameter (C. albicans; [OMIM]Cl 0 M in plate): 10 mm
- Zone of inhibition (ZOI) diameter (C. albicans; [OMIM]Cl 0.25 mM in plate): 11 mm
- Zone of inhibition (ZOI) diameter (C. albicans; [OMIM]Cl 0.625 mM in plate): 23.33 mm
- Zone of inhibition (ZOI) diameter (C. albicans; [OMIM]Cl 2.5 mM in plate): 44.67 mm
- inhibition of C. albicans growth around disk (C. albicans; absence of added IL): minimal inhibition
- Clotrimazole concentration used for FIC, alone (HeLa cells [1]; human, 24 h): 250 mg/L

SMILES: CCCCCCn1cc[n+](C)c1.[Cl-] [[HMIM]Cl, 1-hexyl-3-methylimidazolium chloride]
- toxicity on HeLa cells (HeLa cells [2]; 1.563 mM [HMIM]Cl): low levels of toxicity
- EC50 (HeLa cells [2]; 24 h): 14.1 mM
- IL concentration used for FIC, IL alone (HeLa cells [1]; human, 24 h): 12.5 mM
- IL concentration used for FIC, in combination (HeLa cells [1]; human, 24 h): 12.5 mM

SMILES: CCCCCCCCn1cc[n+](C)c1.[Cl-] [[OMIM]Cl, 1-octyl-3-methylimidazolium chloride]
- EC50 (HeLa cells [2]; 24 h exposure): 1.11 mM
- IL concentration used for FIC, IL alone (HeLa cells [1]; IL alone): 3.125 mM
- Cell Titer Blue Assay plate reading (HeLa cells [1]; OMIM[Cl] 0.195312, Clotrimazole 0.03125 mg/mL): 553
- Cell Titer Blue Assay plate reading (HeLa cells [1]; OMIM[Cl] 0.195312, Clotrimazole 0.0625 mg/mL): 506
- Cell Titer Blue Assay plate reading (HeLa cells [1]; OMIM[Cl] 0.195312, Clotrimazole 0.125 mg/mL): 440
- Cell Titer Blue Assay plate reading (HeLa cells [1]; OMIM[Cl] 0.195312, Clotrimazole 0.25 mg/mL): 135
- Cell Titer Blue Assay plate reading (HeLa cells [1]; OMIM[Cl] 0.195312, Clotrimazole 0.5 mg/mL): 30
- Cell Titer Blue Assay plate reading (HeLa cells [1]; OMIM[Cl] 0.195312, PBS instead of Clotrimazole): 524
- Cell Titer Blue Assay plate reading (HeLa cells [1]; OMIM[Cl] 0.390625, Clotrimazole 0.03125 mg/mL): 343
- Cell Titer Blue Assay plate reading (HeLa cells [1]; OMIM[Cl] 0.390625, Clotrimazole 0.0625 mg/mL): 333
- Cell Titer Blue Assay plate reading (HeLa cells [1]; OMIM[Cl] 0.390625, Clotrimazole 0.125 mg/mL): 92
- Cell Titer Blue Assay plate reading (HeLa cells [1]; OMIM[Cl] 0.390625, Clotrimazole 0.25 mg/mL): 161
- Cell Titer Blue Assay plate reading (HeLa cells [1]; OMIM[Cl] 0.390625, Clotrimazole 0.5 mg/mL): 31
- Cell Titer Blue Assay plate reading (HeLa cells [1]; OMIM[Cl] 0.390625, PBS instead of Clotrimazole): 533
- Cell Titer Blue Assay plate reading (HeLa cells [1]; OMIM[Cl] 0.78125, Clotrimazole 0.03125 mg/mL): 128
- Cell Titer Blue Assay plate reading (HeLa cells [1]; OMIM[Cl] 0.78125, Clotrimazole 0.0625 mg/mL): 121
- Cell Titer Blue Assay plate reading (HeLa cells [1]; OMIM[Cl] 0.78125, Clotrimazole 0.125 mg/mL): 60
- Cell Titer Blue Assay plate reading (HeLa cells [1]; OMIM[Cl] 0.78125, Clotrimazole 0.25 mg/mL): 66
- Cell Titer Blue Assay plate reading (HeLa cells [1]; OMIM[Cl] 0.78125, Clotrimazole 0.5 mg/mL): 32
- Cell Titer Blue Assay plate reading (HeLa cells [1]; OMIM[Cl] 0.78125, PBS instead of Clotrimazole): 180
- Cell Titer Blue Assay plate reading (HeLa cells [1]; OMIM[Cl] 1.5625, Clotrimazole 0.03125 mg/mL): 126
- Cell Titer Blue Assay plate reading (HeLa cells [1]; OMIM[Cl] 1.5625, Clotrimazole 0.0625 mg/mL): 45
- Cell Titer Blue Assay plate reading (HeLa cells [1]; OMIM[Cl] 1.5625, Clotrimazole 0.125 mg/mL): 58
- Cell Titer Blue Assay plate reading (HeLa cells [1]; OMIM[Cl] 1.5625, Clotrimazole 0.25 mg/mL): 33
- Cell Titer Blue Assay plate reading (HeLa cells [1]; OMIM[Cl] 1.5625, Clotrimazole 0.5 mg/mL): 36
- Cell Titer Blue Assay plate reading (HeLa cells [1]; OMIM[Cl] 1.5625, PBS instead of Clotrimazole): 206
- Cell Titer Blue Assay plate reading (HeLa cells [1]; OMIM[Cl] 3.125, Clotrimazole 0.03125 mg/mL): 47
- Cell Titer Blue Assay plate reading (HeLa cells [1]; OMIM[Cl] 3.125, Clotrimazole 0.0625 mg/mL): 37
- Cell Titer Blue Assay plate reading (HeLa cells [1]; OMIM[Cl] 3.125, Clotrimazole 0.125 mg/mL): 36
- Cell Titer Blue Assay plate reading (HeLa cells [1]; OMIM[Cl] 3.125, Clotrimazole 0.25 mg/mL): 36
- Cell Titer Blue Assay plate reading (HeLa cells [1]; OMIM[Cl] 3.125, Clotrimazole 0.5 mg/mL): 38
- Cell Titer Blue Assay plate reading (HeLa cells [1]; OMIM[Cl] 3.125, PBS instead of Clotrimazole): 47
- Cell Titer Blue Assay plate reading (HeLa cells [1]; OMIM[Cl] 6.25, Clotrimazole 0.03125 mg/mL): 41
- Cell Titer Blue Assay plate reading (HeLa cells [1]; OMIM[Cl] 6.25, Clotrimazole 0.0625 mg/mL): 38
- Cell Titer Blue Assay plate reading (HeLa cells [1]; OMIM[Cl] 6.25, Clotrimazole 0.125 mg/mL): 39
- Cell Titer Blue Assay plate reading (HeLa cells [1]; OMIM[Cl] 6.25, Clotrimazole 0.25 mg/mL): 39
- Cell Titer Blue Assay plate reading (HeLa cells [1]; OMIM[Cl] 6.25, Clotrimazole 0.5 mg/mL): 40
- Cell Titer Blue Assay plate reading (HeLa cells [1]; OMIM[Cl] 6.25, PBS instead of Clotrimazole): 41
- Cell Titer Blue Assay plate reading (HeLa cells [1]; OMIM[Cl] 12.5, Clotrimazole 0.03125 mg/mL): 39
- Cell Titer Blue Assay plate reading (HeLa cells [1]; OMIM[Cl] 12.5, Clotrimazole 0.0625 mg/mL): 39
- Cell Titer Blue Assay plate reading (HeLa cells [1]; OMIM[Cl] 12.5, Clotrimazole 0.125 mg/mL): 38
- Cell Titer Blue Assay plate reading (HeLa cells [1]; OMIM[Cl] 12.5, Clotrimazole 0.25 mg/mL): 37
- Cell Titer Blue Assay plate reading (HeLa cells [1]; OMIM[Cl] 12.5, Clotrimazole 0.5 mg/mL): 40
- Cell Titer Blue Assay plate reading (HeLa cells [1]; OMIM[Cl] 12.5, PBS instead of Clotrimazole): 38
